The text below walks through data of patent US10604529B2, “Fused imidazole compound having indoleamine 2,3-dioxygenase inhibitory activity” (SHENZHEN CHIPSCREEN BIOSCIENCES CO., LTD., priority 2016, dated 2020).

Test [1] deals with T1, Recombinant human IDO enzyme (IDO1 enzyme) (Homo sapiens, UniProt P14902).
T1 construct: purchased BPS Bioscience, USA
Put plainly: In vitro IDO enzymatic activity assay (kynurenine colour reaction, 492 nm). It counts as biochemical. As to conditions: for inhibition at 0.2 µM: tested compound concentration 200 nM, recombinant human IDO1, read-out: IDO Enzymatic Inhibition Rate (%) (200 nM). Here is the method:
The basic principle of the in vitro IDO enzymatic activity detection is to use the IDO enzyme to metabolize the substrate L-tryptophan to produce the product kynurenine in an in vitro enzyme-catalyzed reaction system. The kynurenine is yellow in color reaction with p-dimethylaminobenzaldehyde in glacial acetic acid, and the absorbance value was measured at 492 nm on a microplate reader. The concentration of the product kynurenine in the sample is calculated by comparison to a standard curve of kynurenine with a known concentration.
Recombinant human IDO enzyme (IDO1 enzyme) was purchased from BPS Bioscience, USA.
(3) Control reactions were set up at the same time the detection reaction was carried out. including 0 inhibition positive control with no tested compound added and 0 enzyme negative control with no enzyme added. All tests were run in duplicate.
(4) After the enzymatic reaction was completed, 40 μl of a pre-formulated 30% (w/v) trichloroacetic acid solution was added, and reacted at 65° C. for 20 minutes, followed by centrifugation at 12,000 rpm for 15 minutes.
(5) 100 μl of the supernatant after centrifugation was pipetted and added to a 96-well plate. An equal volume of 2% p-dimethylaminobenzaldehyde in glacial acetic acid was added, well mixed, and allowed to stand at room temperature for 10 minutes.
(6) A microplate reader (ELX800NB) was used to detect the color signal of each well with a detection wavelength of 492 nm.
In addition, the enzymatic inhibition rates were calculated for the tested compounds of different concentration gradients, and then the enzymatic half maximal inhibitory concentration (IC50) was calculated using the IC50 calculator.
According to the above-mentioned method of experiment, the compound of the present disclosure was subjected to an in vitro IDO enzymatic IC50 assay using NLG919 as a positive control compound.

Test [2] addresses T2, IFN-γ-induced IDO enzyme in HeLa cells (Homo sapiens, UniProt P14902).
T2 construct: HeLa cells are human cervical cancer cell lines and can up-regulate the expression of endogenous IDO enzymes; endogenous in cells; host or cells: HeLa cells stimulated with human IFN-γ
Nature of the test: Detection of IDO inhibitory activity at the cellular level (IFN-γ-induced HeLa cells). As to conditions: 48 hours; for inhibition at 1 µM: tested compound 1 μM, human IFN-γ 50 ng/ml, read-out: IDO Inhibitory Rate (%) (1 μM). It is filed as cell-based. The source says:
In the present disclosure, IFN-γ-induced IDO enzyme expression in HeLa cells were used as a model to detect the IDO enzymatic inhibitory activity of the compound at the cellular level. HeLa cells are human cervical cancer cell lines and can up-regulate the expression of endogenous IDO enzymes under the induction of human IFN-γ. The cell supernatant can be subjected to detection of the enzyme-catalyzed product kynurenine by adding the substrate L-tryptophan to the cell culture solution. […] Recombinant human IFN-γ cytokine purchased from Sangon Biotech, Phenol red-free DMEM for cell culture purchased from Gibco. […] The cells were further cultured for 48 hours and detected. (2) 200 μl of the supernatant from the culture well was pipetted, 40 μl of a pre-formulated 30% (w/v) trichloroacetic acid solution was added, allowed to react at 65° C. for 20 minutes, and then centrifuged at 12,000 rpm for 15 minutes. (3) 100 μl of the supernatant after centrifugation was pipetted and added into a 96-well plate, an equal volume of 2% p-dimethylaminobenzaldehyde in glacial acetic acid was added, and they were mixed well and allowed to stand at room temperature for 10 minutes. (4) A microplate reader (ELX800NB) was used to detect the color signal of each well, and the detection wavelength was 492 nm.

T1 sequence (P14902 whole entry): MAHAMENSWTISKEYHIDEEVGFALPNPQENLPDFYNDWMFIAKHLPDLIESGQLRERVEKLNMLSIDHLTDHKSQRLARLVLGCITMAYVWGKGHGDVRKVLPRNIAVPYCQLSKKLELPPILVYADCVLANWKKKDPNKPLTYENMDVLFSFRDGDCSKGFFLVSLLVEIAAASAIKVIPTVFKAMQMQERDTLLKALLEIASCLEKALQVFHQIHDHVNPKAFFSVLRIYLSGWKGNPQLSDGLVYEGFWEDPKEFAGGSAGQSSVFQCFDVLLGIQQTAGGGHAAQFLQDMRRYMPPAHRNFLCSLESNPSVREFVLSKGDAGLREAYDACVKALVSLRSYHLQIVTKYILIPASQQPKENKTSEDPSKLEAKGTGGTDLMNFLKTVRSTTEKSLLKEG
T2 sequence (P14902 whole entry): as above

For the compound `O=C(COc1ccc(F)c(Cl)c1)N1CCC(C(O)CC2c3ccccc3-c3cncn32)CC1` (centres unmarked) [Example 39, 2-(3-chloro-4-fluorophenoxy)-1-(4-(1-hydroxy-2-(5H-imidazo[5,1-a]isoindol-5-yl)ethyl)piperidin-1-yl)ethyl-1-one], in test [1], the inhibition at 0.2 µM came to 90%. Besides, the inhibition at 1 µM in test [2] is 98%.

With `CN(CC(=O)N1CCC(C(O)CC2c3ccccc3-c3cncn32)CC1)c1cccc(C(F)(F)F)c1` (centres unmarked) [Example 94, 1-(4-(1-hydroxy-2-(5H-imidazo[5,1-a]isoindol-5-yl)ethyl)piperidin-1-yl)-2-(methyl(3-trifluoromethylphenyl)amino)ethyl-1-one], the inhibition at 0.2 µM in test [1] is 84%. The inhibition at 1 µM in test [2] turned out to be 98%.

Turning to `O=C(COc1ccc(F)cc1)N1CCC(C(O)CC2c3ccccc3-c3cncn32)CC1` (centres unmarked) [Example 43, 2-(4-fluorophenoxy)-1-(4-(1-hydroxy-2-(5H-imidazo[5,1-a]isoindol-5-yl)ethyl)piperidin-1-yl)ethyl-1-one], the inhibition at 0.2 µM in test [1] is 83%. In addition, the inhibition at 1 µM in test [2] is 89%.

With `CN(CC(=O)N1CCC(C(O)CC2c3ccccc3-c3cncn32)CC1)c1ccc(C(F)(F)F)cc1` (centres unmarked) [Example 89, 1-(4-(1-hydroxy-2-(5H-imidazo[5,1-a]isoindol-5-yl)ethyl)piperidin-1-yl)-2-(methyl(4-trifluoromethylphenyl)amino)ethyl-1-one], in test [1], the inhibition at 0.2 µM stood at 68%. In test [2], the inhibition at 1 µM came out at 85%.

The term IC50 denotes the concentration needed to halve the response being measured. By EC50 is commonly meant the concentration that produces a half-maximal response. For `O=C(CNc1ccccc1)N1CCC(C(O)CC2c3ccccc3-c3cncn32)CC1` (centres unmarked) [Example 85, 1-(4-(1-hydroxy-2-(5H-imidazo[5,1-a]isoindol-5-yl)ethyl)piperidin-1-yl)-2-(phenylamino)ethyl-1-one], in test [1] (recombinant human IDO enzyme), the IC50 came to 0.144 µM. Also, the inhibition at 0.2 µM in test [1] was 65%. The EC50 in test [2] (human IFN-γ induced, read-out: IDO EC50 (nM) at the Cellular Level (column head: IC50 (nM))) is 312 nM. In addition, in test [2], the inhibition at 1 µM stood at 84%.

Take `CN(CC(=O)N1CCC(C(O)CC2c3ccccc3-c3cncn32)CC1)c1ccc(F)c(Cl)c1` (centres unmarked) [Example 68, 2-((3-chloro-4-fluorophenyl)(methyl)amino)-1-(4-(1-hydroxy-2-(5H-imidazo[5,1-a]isoindol-5-yl)ethyl)piperidin-1-yl)ethyl-1-one]: in test [1], the inhibition at 0.2 µM is 87%. Further, the inhibition at 1 µM in test [2] turned out to be 98%.
